Like-named read-outs stand apart in the source and are kept apart here. Residues, ends and D or L forms follow the SMILES beside them.
How the values were obtained:
GPR15 = target: T1, GPR15 (Homo sapiens, UniProt P49685); assay: cAMP inhibition (Gi/o), HTRF with forskolin; format: cell-based; settings: mean
T1 construct: hIL-2Ra signal peptide (N); expressed in transfected cells
T1 sequence (P49685 2-360 limits assumed): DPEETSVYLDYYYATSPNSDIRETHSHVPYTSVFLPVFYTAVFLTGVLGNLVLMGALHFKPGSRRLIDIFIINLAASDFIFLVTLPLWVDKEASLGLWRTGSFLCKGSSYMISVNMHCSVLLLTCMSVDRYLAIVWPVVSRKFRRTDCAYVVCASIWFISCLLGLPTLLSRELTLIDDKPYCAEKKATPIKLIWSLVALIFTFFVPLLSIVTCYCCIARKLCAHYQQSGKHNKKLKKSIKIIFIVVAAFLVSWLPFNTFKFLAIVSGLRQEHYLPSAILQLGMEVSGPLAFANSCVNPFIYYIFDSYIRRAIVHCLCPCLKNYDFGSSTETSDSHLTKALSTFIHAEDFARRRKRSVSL
Description: Peptide-dependent second messenger responses were measured using commercially available HTRF-based IP1 and cAMP kits (Cisbio) as described previously ([Nørskov-Lauritsen et al., 2014]). Receptor expression was induced for 48 hr with 0.1 μg/ml doxycycline in 10 cm dishes. For IP1 measurements (to measure Gq/11), 2,500 cells/well were mixed with ligands in triplicate wells in low volume white 384-well plates at 37°C for 30 min. For cAMP assays, 2,500 cells/well were added in triplicate wells in white 384-well plates in the absence or presence of 3 μM forskolin (to measure Gs and Gi/o activation respectively). 100 μM IBMX was included to prevent cAMP degradation during 30 min stimulation on a plate shaker at room temperature. For both assays, HTRF was measured using an EnVision 2104 Multimode plate reader (PerkinElmer).

GPR68 [1] = target: T2, GPR68 (Homo sapiens, UniProt Q15743); assay: GloSensor cAMP assay (Gs), allosteric operational model fitting; format: cell-based; set-up: expressed in transfected cells; host or cells: HEK293T, transient (PEI), co-transfected with GloSensor cAMP plasmid; settings: for Log(ab/KB): allosteric operational model parameter, GPR68 GloSensor cAMP
Description: GPR68-mediated cAMP signaling was measured using GloSensor cAMP assays as published previously ([Huang et al., 2015], [Yu et al., 2019]) with modifications as indicated below. Calcium- and magnesium-free HBSS was supplemented with different organic buffer reagents for different pH solutions, 20 mM 2-(N-morpholino)ethanesulfonic acid (MES, Alfa Aesar) for pH 6.00 – 6.70, 20 mM 4-(2-hydroxyethyl)-1-piperazineethanesulfonic acid (HEPES, Fisher) for pH 6.80 – 8.20, and 20 mM (tris(hydroxymethyl)methylamino)propanesulfonic acid (TAPS) for pH 8.30 – 8.60. The phosphodiesterase (PDE) inhibitor Ro 20-1724 (10 μM final, Cayman Chemical) was included in pH buffers to eliminate potential effect of PDE […]. HEK293T cells were transfected with a modified polyethylenimine (PEI, Polysciences) transfection method ([Longo et al., 2013]). For a 15-cm dish of HEK293T cells with 25 mL growth medium, 8 μg receptor DNA and 8 μg GloSensor DNA (Promega) were mixed in 1 mL of Opti-MEM medium followed by addition of 80 μL PEI reagents. The mixture was added to cells after 20 min incubation at room temperature. Overnight transfected cells were plated in poly-L-lysine (Sigma) coated 384-well white clear bottom plates (Greiner Bio-One, #781098) using DMEM (Corning) + 1% dialyzed FBS (Omega Scientific) for at least 6 h (up to 24 h). Cells were removed of medium before receiving 20 μL/well of 3.5 mM luciferin (Goldbio) prepared in assay buffer (HBSS, 20 mM TAPS, pH 8.40, 10 μM Ro 20-1724) for 1 h at 37°C. Luciferin loading solutions were removed and premixed drug solutions at desired pH conditions were added to cells (25 μL/well). Luminescence was measured 25-30 min after drug application. Results were normalized (basal and maximum responses in the absence of modulator were set to be 0 and 100%) and pooled for analysis using GraphPad Prism.
All of the other parameters, including allosteric affinity cooperativity (α), allosteric modulator binding affinity KB, orthosteric agonist (protons) efficacy τA, system maximal response, and slope factor n were all globally shared for all datasets for each modulator. […] We therefore used an allosteric index, log(αβ/KB) ([Kenakin, 2017a]), which contains both allosteric binding affinity and cooperativity, to quantify the overall allosteric activity.
Target sequence in this assay (Q15743 whole entry): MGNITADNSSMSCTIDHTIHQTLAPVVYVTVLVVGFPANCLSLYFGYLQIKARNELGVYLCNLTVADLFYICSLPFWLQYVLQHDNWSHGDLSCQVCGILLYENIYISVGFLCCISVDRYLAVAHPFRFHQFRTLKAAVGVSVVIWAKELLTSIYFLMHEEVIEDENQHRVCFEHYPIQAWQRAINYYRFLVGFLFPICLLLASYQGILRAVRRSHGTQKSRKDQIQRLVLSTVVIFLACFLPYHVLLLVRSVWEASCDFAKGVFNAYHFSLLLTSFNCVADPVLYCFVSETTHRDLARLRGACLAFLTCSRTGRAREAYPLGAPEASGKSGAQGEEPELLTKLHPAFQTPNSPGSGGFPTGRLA

MRGPRX2 = target: T3, MRGPRX2 (Homo sapiens, UniProt Q96LB1); assay: β-arrestin recruitment (Tango), known peptide receptors; format: cell-based; settings: mean, n = 3
T3 construct: host or cells: HTLA cells (HEK293-derived)
T3 sequence (Q96LB1 1-330): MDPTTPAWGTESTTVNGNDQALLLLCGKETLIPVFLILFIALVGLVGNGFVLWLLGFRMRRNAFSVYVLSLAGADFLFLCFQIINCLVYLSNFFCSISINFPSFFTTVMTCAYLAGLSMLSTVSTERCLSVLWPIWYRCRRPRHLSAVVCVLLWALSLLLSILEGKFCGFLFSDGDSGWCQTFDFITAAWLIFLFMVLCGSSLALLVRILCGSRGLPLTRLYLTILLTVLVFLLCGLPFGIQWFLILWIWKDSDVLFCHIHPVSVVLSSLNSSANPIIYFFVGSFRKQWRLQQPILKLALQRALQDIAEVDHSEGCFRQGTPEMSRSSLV

NPY5 = target: T4, NPY5 (Homo sapiens, UniProt Q15761); assay: as above; format: cell-based; settings: NPY5R, n = 3; for Comment, Tango (fold over basal): Emax and pEC50 n.d.
T4 construct: host or cells: HTLA cells (HEK293-derived)
T4 sequence (Q15761 1-445): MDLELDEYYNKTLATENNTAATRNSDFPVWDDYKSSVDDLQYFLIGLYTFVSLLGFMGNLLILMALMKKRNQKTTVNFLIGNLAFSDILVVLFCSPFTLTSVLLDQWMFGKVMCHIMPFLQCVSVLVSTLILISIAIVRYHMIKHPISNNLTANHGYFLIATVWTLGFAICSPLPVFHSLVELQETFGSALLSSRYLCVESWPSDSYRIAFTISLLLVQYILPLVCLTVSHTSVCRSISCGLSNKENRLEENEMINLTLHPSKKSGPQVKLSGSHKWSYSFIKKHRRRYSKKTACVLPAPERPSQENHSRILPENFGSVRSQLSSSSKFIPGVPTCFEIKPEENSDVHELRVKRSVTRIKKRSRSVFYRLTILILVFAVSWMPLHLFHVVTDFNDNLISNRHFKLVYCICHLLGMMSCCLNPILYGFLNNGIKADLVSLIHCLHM
Description: (§1) The peptide library was additionally screened against 120 GPCR targets in parallel, including all available orphan receptors and 27 known class A peptide receptors using the Tango assay platform ([Kroeze et al., 2015]). Briefly, HTLA cells (a HEK293 cell line stably expressing a tTA-dependent luciferase reporter and a β-arrestin2-TEV fusion gene) were plated 10,000 cells/well in poly-L-lysine–coated clear-bottom white 384-well plates in DMEM supplemented with 10% FBS, 100 U/ml penicillin and 100 μg/ml streptomycin, 2 μg/ml puromycin and 100 μg/ml hygromycin B. 24 hr later, cells were transfected with Tango GPCR constructs using the calcium phosphate method ([Jordan et al., 1996]). The next day, culture medium was changed to DMEM + 1% dFBS and 10 μM peptides were added for overnight stimulation. Bright-Glo solution (Promega) was incubated for 15–20 min at room temperature, and luminescence was counted using a Trilux luminescence counter (Wallac).
For subsequent peptide validation experiments using Tango assays, HTLA cells were transiently transfected in 10 cm dishes with the receptor of interest using polyethylenimine (PEI) ([Longo et al., 2013]). After 24 hr, 25,000 cells/well were plated in clear bottom, white-walled 384-well plates. Assays were performed as described above, with luminescence measured using an EnSpire 2300 Multimode plate reader (PerkinElmer). Luminescence counts were exported into Excel and were analyzed using GraphPad Prism 7.

[2] = tested on: 120 GPCR targets, including all available orphan receptors and 27 known class A peptide receptors; assay: Peptide library screen, β-arrestin recruitment (Tango, fold change, 10 μM); format: cell-based, human; settings: Tango; receptor(s) at which the known library peptide was active, among its known GPCR target(s); validated pairings
Description: as §1

GPR68 [3] = target: T2, GPR68; assay: Real-time receptor internalization (TR-FRET), concentration-response; format: cell-based; set-up: hIL-2Ra signal peptide (N); expressed in transfected cells; settings: GPR68; real-time internalization; mean, SEM and n (3)
Description: 48 hr prior to parallel assaying, SNAP-tagged oGPCR cells were plated (10,000 cells/well) in fibronectin-coated 384-well Epic biosensor microplates (Corning) and poly-D-lysine coated white 384-well plates (for internalization assays). SNAP- GLP-1 receptor was plated alongside orphan receptor cells as an internal assay control for internalization assays. Receptor-expression was induced with 0.1 μg/ml doxycycline.
A TR-FRET real-time internalization assay was used to examine peptide-dependent changes in orphan receptor localization as described previously ([Foster and Bräuner-Osborne, 2018]). Surface-expressed SNAP-tagged receptors were labeled with a cell-impermeable luminescent terbium cryptate (100 nM SNAP Lumi4-Tb; Cisbio, France) for 1 hr at 37°C. Cells were washed to remove excess terbium and incubated with fluorescein-O-acetic acid (100 μM; Sigma Aldrich) for 5 min at 37°C. Peptides were added as for DMR assays, and internalization responses were recorded for 60 min at 37°C using an EnVision 2104 Multimode plate reader (PerkinElmer). 100 nM GLP-1 was used as a positive control for SNAP-GLP1R internalization. Real-time internalization responses were calculated based on TR-FRET (excitation 340 nm; emission 520 nm and 615 nm), and were expressed as the ratio between donor (terbium) and acceptor (fluorescein) emission. For peptide screening analysis (both DMR and internalization assays), we calculated the area under the curve from the real-time traces. As the magnitude of the responses was variable between orphan receptor targets, particularly for the SNAP-tag based internalization assay where the signal is dependent on receptor surface expression, the AUC values were normalized to their respective plate averages and expressed as fold change. Validation experiments for receptor internalization were performed as above. Internalization data was processed in MS-Excel and area under the curve was used to generate concentration-response curves using GraphPad Prism 7.0. Data represent mean ± standard error of the mean (SEM) from at least 3 biologically independent experiments.
Target sequence in this assay (Q15743 2-365 limits assumed): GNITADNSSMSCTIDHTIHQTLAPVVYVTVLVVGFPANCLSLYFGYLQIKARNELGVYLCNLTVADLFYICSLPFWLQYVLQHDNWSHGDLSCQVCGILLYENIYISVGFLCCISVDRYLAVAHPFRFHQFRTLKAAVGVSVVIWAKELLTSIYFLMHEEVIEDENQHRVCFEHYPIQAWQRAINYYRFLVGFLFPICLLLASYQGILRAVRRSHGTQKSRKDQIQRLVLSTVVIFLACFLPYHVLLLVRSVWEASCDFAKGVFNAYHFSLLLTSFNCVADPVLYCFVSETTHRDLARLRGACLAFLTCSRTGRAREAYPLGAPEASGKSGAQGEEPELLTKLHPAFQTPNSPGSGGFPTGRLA

CC(C)C[C@H](NC(=O)[C@H](C)NC(=O)CNC(=O)[C@@H]1CCCN1C(=O)[C@@H](NC(=O)[C@@H](NC(=O)[C@H](Cc1c[nH]c2ccccc12)NC(=O)[C@@H](N)CC(C)C)C(C)C)C(C)C)C(=O)N1CCC[C@H]1C(=O)N[C@@H](CCC(N)=O)C(=O)N[C@H](C(=O)O)C(C)C [64 resynthesized] (H-LWVVPGALPQV-OH)
Emax (GPR15; receptor GPR15, SEM and n (4), read-out: cAMP accumulation assays Emax (% FSK)): 30.8%

CC(C)C[C@H](NC(=O)[C@H](C)NC(=O)CNC(=O)[C@@H]1CCCN1C(=O)[C@@H](NC(=O)[C@@H](NC(=O)[C@H](Cc1c[nH]c2ccccc12)NC(=O)[C@@H](N)CC(C)C)C(C)C)C(C)C)C(=O)N1CCC[C@H]1C(=O)N[C@@H](CCC(N)=O)C(=O)N[C@H](C(=O)O)C(C)C [GPR15L_(47-57)] (H-LWVVPGALPQV-OH)
Emax (GPR15; GPR15, SEM and n, read-out: Emax, cAMP (% FSK)): 29.2%

Nc1nc(NCc2ccccc2)nc(-c2ccccc2CO)n1 [Ogerin]
Log(ab/KB) (GPR68 [1]; replicate 1): 5.25 | Log(ab/KB) (GPR68 [1]; replicate 2): 5.23 | Log(ab/KB) (GPR68 [1]; replicate 3): 5.25

CC[C@H](C)[C@H](NC(=O)[C@H](CCCNC(=N)N)NC(=O)[C@H](C)NC(=O)CNC(=O)[C@H](CCCCN)NC(=O)[C@H](CCCNC(=N)N)NC(=O)[C@@H](NC(=O)[C@H](C)NC(=O)[C@H](CS)NC(=O)[C@H](CCC(N)=O)NC(=O)[C@H](CCC(=O)O)NC(=O)CNC(=O)[C@H](C)NC(=O)[C@H](CC(=O)O)NC(=O)[C@H](CS)NC(=O)[C@H](CCSC)NC(=O)[C@@H]1CCCN1C(=O)[C@@H](NC(=O)[C@H](CCC(N)=O)NC(=O)CNC(=O)[C@@H](N)Cc1ccc(O)cc1)C(C)C)C(C)C)C(=O)O [Pepetide 139] (H-YGQVPMCDAGEQCAVRKGARI-OH; N-terminus assumed)
Log(ab/KB) (GPR68 [1]; replicate 1): 5.24 | Log(ab/KB) (GPR68 [1]; replicate 2): 5.36 | Log(ab/KB) (GPR68 [1]; replicate 3): 5.40 | Log(ab/KB) (GPR68 [1]; replicate 4): 5.40 | Fold difference (GPR68 [1]; fold difference of ab/KB relative to Ogerin): 1.28

ATVRNEDKWKPLNNPRNRDLFFRRLQAYFK [Peptide 175]
Emax, Tango (fold over basal) (MRGPRX2): 3.5 fold over basal | pEC50, Tango (fold over basal) (MRGPRX2): 4.67

FLWKDLQRVR [Peptide 56]
Emax, Tango (fold over basal) (MRGPRX2): 4.9 fold over basal | pEC50, Tango (fold over basal) (MRGPRX2): 4.90

IQAQLKELRY [Peptide 49]
Comment, Tango (fold over basal) (NPY5): Response >1uM

MPHSFANLPLRF [Peptide 86]
Emax, Tango (fold over basal) (NPY5; mean): 10.4 fold over basal | pEC50, Tango (fold over basal) (NPY5; mean): 5.44 | Active at: (activity in b-arrestin recruitment assays) [2]: NPFF1

QMAVKKYLAAVL [Peptide 84]
Emax, Tango (fold over basal) (MRGPRX2): 7.0 fold over basal | pEC50, Tango (fold over basal) (MRGPRX2): 5.02

RFGIPMDRIGRNRLSNSR [Peptide 128.1]
Internalization assays Emax (AUC) (GPR68 [3]): 2.0

SQAFLFQPQRF [Peptide 75]
Comment, Tango (fold over basal) (NPY5): Response >1uM | Active at: (activity in b-arrestin recruitment assays) [2]: NPFF1

VPNLPGRF [Peptide 36]
Comment, Tango (fold over basal) (NPY5): Response >1uM

WYKHVASPRYHTVGRAAGLLMGL [Peptide 151]
Emax, Tango (fold over basal) (MRGPRX2): 3.4 fold over basal | pEC50, Tango (fold over basal) (MRGPRX2): 4.73 | Active at: (activity in b-arrestin recruitment assays) [2]: NPBW1, NPBW2
